{"source": "patent EP1394169A1", "about": "“Organometallic complex” (Hwu, Jih-Ru, priority 2002, dated 2004)", "key": {"[1]": {"test_system": "160-bp dsDNA fragment was prepared from the 501―660 fragment of pBR322 DNA", "test": "Site-specific DNA cleavage of 5'-32P-labeled 160-bp dsDNA fragment (polyacrylamide/urea gel, autoradiogram)", "type": "biochemical", "conditions": "complex 20―100 µM, 350-nm UV 2.0 h", "protocol": "A 160-bp dsDNA fragment was prepared from the 501―660 fragment of pBR322 DNA. It was amplified by the polymerase chain reaction (Bailly & Waring (1995) J. Am. Chem. Soc. 117:7311; Bailly et al. (1993) J. Am Chem. Soc. 115: 3784; and Sayers & Waring (1993) Biochemistry 32: 9094), and labeled at the 5'-terminus with γ-[^32P]-ATP and T4 polynucleotide kinase. A reaction mixture containing a 5'-terminus labeled ^32P-DNA solution, a phosphate buffer (0-10 M, pH 6.0), and complex 1 (20―100 µM) in a Pyrex vial was preincubated at 37°C for 30 min. The reaction mixture was irradiated with 350-nm UV light under aerobic conditions for 2.0 h at room temperature. The bound metal complexes on DNA fragments were removed by using 0.30 N NaCN (pH = 11) at 37°C for 8.0 h (Schwartz et al. (1990) J. Am. Chem. Soc. 112: 3673; and Zou et al. (1994) Biochemistry 33: 5404). The reaction mixture was then quenched with either a gel-loading buffer or 95% ethanol. […] The samples and the Maxam-Gilbert markers were analyzed using 10% polyacrylamide/8.0 M urea gel. […] Quantitation of relative intensities of DNA fragments was performed using a Microtek scanner and NIH 1.60 image program.\nThe detected DNA fragments were compared with Maxam-Gilbert markers on an autoradiogram, and quantitated by a computer-assisted program."}, "[2]": {"test_system": "double helical oligonucleotide d(ATAT)2", "test": "DNA binding and cleaving mechanism with oligonucleotide (LC-mass)", "conditions": "1:1, phosphate buffer pH 6.0, in the dark for 2.0 h", "protocol": "A double helical oligonucleotide d(ATAT)2 was prepared and added to a phosphate buffer solution (pH = 6.0) containing complex 1(1:1). The solution was kept in the dark for 2.0 h. An intermediate was detected, at a yield of 57%, with a signal at 650.1 for (M + H^+) as analyzed by an electron spray ionization detector in LC-mass chromatogram. Then, the solution was irradiated with 350 nm-UV light for 2.0 h at room temperature. A product was detected with a signal at 456.1 for (M + H^+). […] Then an intramolecular cyclization took place to remove the DMSO and to form a covalent bond between the N-7 nitrogen atom and the platinum in complex 1, resulting in the oligonucleotide cleavage."}, "[3]": {"test_system": "supercoiled circular φX174 RFI DNA", "test": "Single-strand DNA cleavage of supercoiled circular DNA under 350 nm UV irradiation (agarose gel)", "type": "biochemical", "conditions": "in the dark"}, "[4]": {"test_system": "supercoiled circular φX174 RFI DNA", "test": "Single-strand DNA cleavage of supercoiled circular DNA under 350 nm UV irradiation (agarose gel)", "type": "biochemical", "conditions": "for (% form I) / (% form II) / (% form II)/ (% form I) / DNA forms observed on gel: 350 nm UV 2.0 h", "protocol": "Cleavage at various pH's: A reaction mixture (10 µL) containing supercoiled circular φX174 RFI DNA stock solution (50 µM/base pair), complex 1 (5.0 µM), and a phosphate buffer (0.10 M, pH 5.0, 6.0, 7.0, and 8.0) in a Pyrex vial was preincubated at 37°C. The reaction mixture was then irradiated with 350 nm UV light (32-W) for 2.0 h at room temperature. After adding a gel-loading buffer (025% bomophenol blue, 0.25% xylene cyanol, and 30% glycerol), the reaction mixture was loaded on a 1% agarose gel, followed by ethidium bromide staining. The gel was visualized by a 312-nm UV transilluminator and photographed by a FB-PDC-34 camera. Supercoiled circular DNA and cleaved DNA were clearly seen from the gel.\nCleavage at various complex concentrations: A reaction mixtures (10 µL) containing supercoiled circular φX174 RFI DNA stock solution (50 µM/base pair), complex 1 (0.050―100 µM), and a phosphate buffer (0.10 M, pH 6.0) in a Pyrex vial was preincubated at 37°C. The mixture was irradiated with 350 nm UV light (32-W) for 2.0 h at room temperature. After adding a gel-loading buffer (0.25% bromophenol blue, 0.25% xylene cyanol, and 30% glycerol), the reaction mixture was loaded on a 1% agarose gel, followed by ethidium bromide staining. The gel was visualized by a 312-nm UV transilluminator and photographed by a FB-PDC-34 camera. Supercoiled circular DNA (form I) and cleaved DNA (form II) were clearly seen from the gel."}, "2'-deoxyguanosine": {"test_system": "2'-deoxyguanosine", "test": "Binding and cyclization reaction with 2'-deoxyguanosine (LC-mass)", "protocol": "As a comparison, a reaction involving 2'-deoxyguanosine and complex 1 was carried out. Complex 1 bound to the C-2 amino on a guanine to form a Pt-N covalent bond. […] As a result, cleavage at a guanine site required assistance from an external base (e.g., piperidine). In another experiment, an excess of complex 1 was added to a 2'-deoxyguanosine solution, followed by piperidine treatment. An intermediate was detected, at a yield of 42%, with a signal at 1063.9 for (M + H^+) as analyzed by an electron spray ionization detector in LC-mass chromatogram. The intermediate was able to give a cyclization product, at a yield of 80%, with a signal at 792.0 for (M + H^+) upon 350-nm UV light irradiation, but not in the dark. The scheme below depicts the just-described reaction: [drawing 5]"}}}
{"smiles": "C[S+](C)(=O)[Pt-2]1([Cl])[O][n+]2ccccc2[S]1", "note": "(centres unmarked) [complex 1, PtCl(DMSO)[η^2-C5H4SN(O)]]", "values": [{"measurement": "site of DNA cleavage", "setting": "[1]; with hot piperidine treatment", "result": "cleaved DNA at purine residues"}, {"measurement": "site of DNA cleavage", "setting": "[1]; without piperidine treatment", "result": "at adenine residues"}, {"measurement": "yield of intermediate (complex bound to adenine)", "setting": "[2]", "result": 57, "unit": "%"}, {"measurement": "(% form I)", "setting": "[3]; complex 500 µM, pH 6.0", "result": 93, "unit": "%"}, {"measurement": "(% form II)", "setting": "[3]; complex 500 µM, pH 6.0", "result": 7.0, "unit": "%"}, {"measurement": "(% form II)/ (% form I)", "setting": "[3]; complex 500 µM, pH 6.0", "result": 0.070}, {"measurement": "cleavage of single-strand DNA", "setting": "[3]", "result": "did not occur"}, {"measurement": "(% form I)", "setting": "[4]; complex 1.0 µM, pH 6.0", "result": 37, "unit": "%"}, {"measurement": "(% form II)", "setting": "[4]; complex 1.0 µM, pH 6.0", "result": 63, "unit": "%"}, {"measurement": "(% form II)/ (% form I)", "setting": "[4]; complex 1.0 µM, pH 6.0", "result": 1.7}, {"measurement": "(% form I)", "setting": "[4]; complex 2.5 µM, pH 6.0", "result": 20, "unit": "%"}, {"measurement": "(% form II)", "setting": "[4]; complex 2.5 µM, pH 6.0", "result": 80, "unit": "%"}, {"measurement": "(% form II)/ (% form I)", "setting": "[4]; complex 2.5 µM, pH 6.0", "result": 4.0}, {"measurement": "(% form I)", "setting": "[4]; complex 5.0 µM, pH 6.0", "result": 7.1, "unit": "%"}, {"measurement": "(% form II)", "setting": "[4]; complex 5.0 µM, pH 6.0", "result": 93, "unit": "%"}, {"measurement": "(% form II)/ (% form I)", "setting": "[4]; complex 5.0 µM, pH 6.0", "result": 13}, {"measurement": "DNA forms observed on gel", "setting": "[4]; complex 5.0 µM, pH 5.0", "result": "only cleaved DNA was observed"}, {"measurement": "DNA forms observed on gel", "setting": "[4]; complex 5.0 µM, pH 6.0", "result": "only cleaved DNA was observed"}, {"measurement": "DNA forms observed on gel", "setting": "[4]; complex 5.0 µM, pH 7.0", "result": "only cleaved DNA was observed"}, {"measurement": "DNA forms observed on gel", "setting": "[4]; complex 5.0 µM, pH 8.0", "result": "both supercoiled circular DNA and cleaved DNA were observed"}, {"measurement": "DNA cleaving activity", "setting": "[4]; concentration as low as 1.0 µM", "result": "very strong DNA cleaving activity"}, {"measurement": "yield of intermediate (complex bound to guanine)", "setting": "2'-deoxyguanosine; excess of complex, followed by piperidine treatment", "result": 42, "unit": "%"}, {"measurement": "yield of cyclization product from intermediate", "setting": "2'-deoxyguanosine; upon 350-nm UV light irradiation", "result": 80, "unit": "%"}]}
